In US12509431B2, “1,4-dihydroquinazolinone compounds and uses thereof” (Edgewise Therapeutics, Inc., priority 2022, dated 2025):

Assays:
Format in all cases: biochemical
Conditions in all cases: Table 8
[1] = test system: Rabbit Skeletal myofibrils (rabbit psoas muscle); test: Myofibril ATPase assay (PK/LDH NADH-coupled), skeletal myofibrils
Outline: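 ATPase rate taken as linear-regression slope of A340 (NADH depletion through PK/LDH coupling) over a 75 min kinetic read, with psoas-derived rabbit skeletal myofibrils at pH 7.0. Four-parameter fits of vehicle-normalized activity give EC25 and, where reached, EC50.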

[2] = target: T1, Porcine Ventricle myofibrils (left ventricle of Yucatan minipigs) (Sus scrofa, UniProt P79293); test: Myofibril ATPase assay (PK/LDH NADH-coupled), ventricle myofibrils
T1 construct: Myofibrils from porcine cardiac muscle was isolated from the left ventricle of Yucatan minipigs; tissue Exemplar Genetics; host or cells: left ventricle of Yucatan minipigs
Outline: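 NADH depletion (A340) coupled through pyruvate kinase/lactate dehydrogenase reports ATPase rate of porcine left-ventricle myofibrils over 75 min kinetic reads. Regression slopes, vehicle-normalized, fitted by 4-parameter logistic give EC25 and, where available, EC50.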

Porcine Atria myofibrils = test: Myofibril ATPase assay (PK/LDH NADH-coupled), atria myofibrils
Outline: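 Values are EC25% (and, for inhibitors, EC50%) from 4-parameter logistic fits of activity normalized to vehicle wells. Rates came from linear regression of 340 nm kinetic reads (every 1.5-2 min, 75 min) of NADH-coupled ATP turnover by porcine atria myofibrils.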

T1 sequence (P79293 whole entry): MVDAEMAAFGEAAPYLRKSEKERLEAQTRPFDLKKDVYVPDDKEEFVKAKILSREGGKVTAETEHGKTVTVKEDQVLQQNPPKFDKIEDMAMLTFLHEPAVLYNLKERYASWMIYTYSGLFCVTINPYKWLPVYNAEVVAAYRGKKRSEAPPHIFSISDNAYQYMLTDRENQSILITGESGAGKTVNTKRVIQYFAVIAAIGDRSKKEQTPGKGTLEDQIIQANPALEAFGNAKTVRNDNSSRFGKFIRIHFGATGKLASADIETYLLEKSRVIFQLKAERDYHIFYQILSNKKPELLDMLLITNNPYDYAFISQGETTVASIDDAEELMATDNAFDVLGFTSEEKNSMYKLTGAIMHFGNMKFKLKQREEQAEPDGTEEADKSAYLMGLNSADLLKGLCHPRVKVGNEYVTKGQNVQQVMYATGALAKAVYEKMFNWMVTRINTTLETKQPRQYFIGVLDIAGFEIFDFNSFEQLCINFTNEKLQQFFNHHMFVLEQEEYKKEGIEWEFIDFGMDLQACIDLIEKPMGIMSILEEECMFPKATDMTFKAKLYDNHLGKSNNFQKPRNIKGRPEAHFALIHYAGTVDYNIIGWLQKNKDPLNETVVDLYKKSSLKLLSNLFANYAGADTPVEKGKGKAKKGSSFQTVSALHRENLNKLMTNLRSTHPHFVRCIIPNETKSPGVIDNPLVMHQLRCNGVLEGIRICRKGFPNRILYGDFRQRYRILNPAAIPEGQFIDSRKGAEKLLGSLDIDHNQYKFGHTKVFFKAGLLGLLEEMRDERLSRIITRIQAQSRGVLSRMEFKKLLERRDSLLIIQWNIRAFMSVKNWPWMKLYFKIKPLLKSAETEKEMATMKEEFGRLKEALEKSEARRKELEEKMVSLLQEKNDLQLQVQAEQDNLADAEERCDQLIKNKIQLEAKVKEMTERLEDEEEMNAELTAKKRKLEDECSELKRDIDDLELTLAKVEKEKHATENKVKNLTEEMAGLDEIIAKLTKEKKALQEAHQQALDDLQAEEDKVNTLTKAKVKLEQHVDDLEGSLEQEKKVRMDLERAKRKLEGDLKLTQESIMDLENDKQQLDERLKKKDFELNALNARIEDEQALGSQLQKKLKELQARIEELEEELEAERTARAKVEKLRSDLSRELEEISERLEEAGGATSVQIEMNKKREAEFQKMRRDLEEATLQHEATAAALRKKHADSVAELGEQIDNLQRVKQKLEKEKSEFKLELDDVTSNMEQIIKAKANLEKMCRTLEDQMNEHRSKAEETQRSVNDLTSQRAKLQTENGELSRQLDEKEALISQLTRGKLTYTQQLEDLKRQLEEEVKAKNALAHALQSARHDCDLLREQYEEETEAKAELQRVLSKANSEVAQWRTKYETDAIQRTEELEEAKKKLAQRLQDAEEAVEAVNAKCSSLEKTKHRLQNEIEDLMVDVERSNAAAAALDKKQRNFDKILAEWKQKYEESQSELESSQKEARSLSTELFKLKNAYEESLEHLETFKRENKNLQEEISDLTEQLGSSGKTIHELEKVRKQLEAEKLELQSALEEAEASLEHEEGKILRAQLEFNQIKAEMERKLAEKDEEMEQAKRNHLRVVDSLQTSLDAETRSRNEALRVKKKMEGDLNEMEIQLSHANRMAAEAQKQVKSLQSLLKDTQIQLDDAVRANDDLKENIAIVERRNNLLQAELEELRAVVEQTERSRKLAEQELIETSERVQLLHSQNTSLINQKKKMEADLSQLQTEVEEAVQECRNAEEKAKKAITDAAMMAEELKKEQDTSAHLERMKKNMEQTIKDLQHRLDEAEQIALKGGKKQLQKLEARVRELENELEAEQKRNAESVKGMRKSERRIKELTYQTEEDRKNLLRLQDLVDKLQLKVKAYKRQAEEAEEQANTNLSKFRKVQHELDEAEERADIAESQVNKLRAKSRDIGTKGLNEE

Compound | Rabbit Psoas IC25 [1] | Porcine Ventricle IC25 [2] | Porcine Atria IC25 (Porcine Atria myofibrils)
N#Cc1cnc2c(c1)OC[C@H]2NC(=O)CN1Cc2c(ccc(F)c2F)NC1=O [Compound B64] | 777.3 nM | 579.8 nM | 520 nM
CC(C)C[C@@H](C(=O)N[C@H](C)c1ccc(F)cc1F)N1Cc2cc(F)ccc2NC1=O [Compound B66] | 100000 nM | 100000 nM | 100000 nM
Cc1cc([C@@H](C)NC(=O)CN2Cc3c(ccc(F)c3F)NC2=O)ncc1F [Compound B68] | 58620 nM | 1168 nM | 2030 nM
Cc1cc(C(C)NC(=O)CN2Cc3c(ccc(F)c3F)NC2=O)ncc1Cl (stereo not drawn) [Compound B70] | 1912 nM | 1114 nM | 350 nM
Cc1noc([C@@H](C)NC(=O)CN2Cc3c(ccc(F)c3F)NC2=O)n1 [Compound B71] | 100000 nM | 40660 nM | 43180 nM
Cc1noc([C@H](C)NC(=O)CN2Cc3c(ccc(F)c3F)NC2=O)n1 [Compound B72] | 1903 nM | 100000 nM | 2250 nM
C[C@@H](NC(=O)CN1Cc2c(ccc(F)c2F)NC1=O)c1cc2c(cn1)OCCN2C [Compound B73] | 23300 nM | 2134 nM | 1220 nM
O=C(CN1Cc2c(ccc(F)c2F)NC1=O)N[C@@H]1COCc2cc(F)ccc21 [Compound B75] | 91.36 nM | 14.4 nM | 20 nM
CC(NC(=O)CN1Cc2c(ccc(F)c2F)NC1=O)c1ncc(C#N)cc1F (stereo not drawn) [Compound B77] | 48.8 nM | 76.8 nM | 40 nM
CC(NC(=O)CN1Cc2cc(F)ccc2NC1=O)c1ccc(C#N)cc1F (stereo not drawn) [Compound B78] | 41.7 nM | 109.1 nM | 40 nM
COc1cc(C#N)ncc1[C@@H](C)NC(=O)CN1Cc2c(ccc(F)c2F)NC1=O [Compound B79] | 266.2 nM | 445.4 nM | 40 nM
COc1cc(C#N)ncc1[C@H](C)NC(=O)CN1Cc2c(ccc(F)c2F)NC1=O [Compound B80] | 8828 nM | 2778 nM | 60 nM
C[C@@H](NC(=O)CN1Cc2c(ccc(F)c2F)NC1=O)c1ncc(Cl)cc1F [Compound B81] | 5776 nM | 409.2 nM | 90 nM
C[C@H](NC(=O)CN1Cc2c(ccc(F)c2F)NC1=O)c1ncc(Cl)cc1F [Compound B82] | 18.3 nM | 56.1 nM | 30 nM
Cc1cc(C#N)ncc1[C@@H](C)NC(=O)CN1Cc2c(ccc(F)c2F)NC1=O [Compound B83] | 21.4 nM | 51.9 nM | 40 nM
C[C@@H](NC(=O)CN1Cc2c(ccc(F)c2F)NC1=O)c1nc(-c2ccc(F)cn2)no1 [Compound B85] | 4582 nM | 28590 nM | 390 nM
C[C@H](NC(=O)CN1Cc2c(ccc(F)c2F)NC1=O)c1nc(-c2ccc(F)cn2)no1 [Compound B86] | 100000 nM | 100000 nM | 100000 nM
O=C(CN1Cc2c(ccc(F)c2F)NC1=O)N[C@H]1COc2ccc(F)cc2C1 [Compound B88] | 100000 nM | 2339 nM | 460 nM
N#Cc1cnc2c(c1)CC[C@H]2NC(=O)CN1Cc2c(ccc(F)c2F)NC1=O [Compound B89, N-[(7R)-3-Cyano-5H,6H,7H-cyclopenta[b]pyridin-7-yl]-2-(5,6-difluoro-2-oxo-1,4-dihydroquinazolin-3-yl)acetamide] | 78.47 nM | 246.9 nM | 70 nM
N#Cc1cnc2c(c1)CC[C@@H]2NC(=O)CN1Cc2c(ccc(F)c2F)NC1=O [Compound B90] | 100000 nM | 100000 nM | 10980 nM
C[C@@H](NC(=O)CN1Cc2c(ccc(F)c2F)NC1=O)c1cnc(C#N)cn1 [Compound B91] | 391.3 nM | 783 nM | 140 nM
C[C@H](NC(=O)CN1Cc2c(ccc(F)c2F)NC1=O)c1cnc(C#N)cn1 [Compound B92] | 19.09 nM | 51.26 nM | 30 nM

Compound | Rabbit Psoas IC25 [1] | Porcine Ventricle IC25 [2] | Porcine Atria IC25 (Porcine Atria myofibrils)
C[C@@H](NC(=O)CN1Cc2c(ccc(F)c2F)NC1=O)c1ccc(Cl)cn1 [Compound B93] | 11450 nM | 5574 nM | 1260 nM
C[C@H](NC(=O)CN1Cc2c(ccc(F)c2F)NC1=O)c1ccc(Cl)cn1 [Compound B94] | 129.4 nM | 543.8 nM | 90 nM
C[C@@H](NC(=O)CN1Cc2c(ccc(F)c2F)NC1=O)c1nnc(-c2ccccc2F)s1 [Compound B95] | 100000 nM | 100000 nM | 1560 nM
C[C@H](NC(=O)CN1Cc2c(ccc(F)c2F)NC1=O)c1nnc(-c2ccccc2F)s1 [Compound B96] | 21880 nM | 100000 nM | 1910 nM
C[C@@H](NC(=O)CN1Cc2c(ccc(F)c2F)NC1=O)c1nnc2c(Cl)cc(C(F)(F)F)cn12 [Compound B97] | 8892 nM | 4796 nM | 1430 nM
C[C@H](NC(=O)CN1Cc2c(ccc(F)c2F)NC1=O)c1nnc2c(Cl)cc(C(F)(F)F)cn12 [Compound B98] | 93470 nM | 72380 nM | 100000 nM
C[C@@H](NC(=O)CN1Cc2c(ccc(F)c2F)NC1=O)c1ccncc1F [Compound B99] | 100000 nM | 100000 nM | 700 nM
C[C@H](NC(=O)CN1Cc2c(ccc(F)c2F)NC1=O)c1ccncc1F [Compound B100] | 124.6 nM | 740.9 nM | 30 nM
O=C(CN1Cc2c(ccc(F)c2F)NC1=O)N[C@@H]1COc2c(F)cc(F)cc2C1 [Compound B101] | 1059 nM | 575.9 nM | 150 nM
O=C(CN1Cc2c(ccc(F)c2F)NC1=O)N[C@H]1COc2c(F)cc(F)cc2C1 [Compound B102] | 7621 nM | 6262 nM | 100 nM
C[C@@H](NC(=O)CN1Cc2c(ccc(F)c2F)NC1=O)c1c(F)cncc1F [Compound B103] | 426 nM | 1132 nM | 30 nM
C[C@H](NC(=O)CN1Cc2c(ccc(F)c2F)NC1=O)c1c(F)cncc1F [Compound B104] | 100000 nM | 100000 nM | 2790 nM
C[C@@H](NC(=O)CN1Cc2c(ccc(F)c2F)NC1=O)c1ncc(C#N)cn1 [Compound B105] | 4205 nM | 6381 nM | 110 nM
C[C@H](NC(=O)CN1Cc2c(ccc(F)c2F)NC1=O)c1ncc(C#N)cn1 [Compound B106] | 302.8 nM | 476.5 nM | 90 nM
C[C@@H](NC(=O)CN1Cc2c(ccc(F)c2F)NC1=O)c1ccc(C(F)(F)F)cn1 [Compound B107] | 100000 nM | 100000 nM | 100000 nM
C[C@H](NC(=O)CN1Cc2c(ccc(F)c2F)NC1=O)c1ccc(C(F)(F)F)cn1 [Compound B108] | 1400 nM | 3587 nM | 460 nM
C[C@@H](NC(=O)CN1Cc2c(ccc(F)c2F)NC1=O)c1ncncc1F [Compound B109] | 13900 nM | 100000 nM | 12190 nM
C[C@H](NC(=O)CN1Cc2c(ccc(F)c2F)NC1=O)c1ncncc1F [Compound B110] | 55.8 nM | 559.5 nM | 40 nM
C[C@@H](NC(=O)CN1Cc2c(ccc(F)c2C#N)NC1=O)c1ccc(C#N)cn1 [Compound B111] | 564 nM | 100000 nM | 100000 nM
C[C@H](NC(=O)CN1Cc2c(ccc(F)c2C#N)NC1=O)c1ccc(C#N)cn1 [Compound B112] | 79 nM | 2318 nM | 1510 nM
C[C@@H](NC(=O)CN1Cc2c(F)cccc2NC1=O)c1ccc(C#N)cc1F [Compound B113] | 90.89 nM | 233 nM | 160 nM
